Measured values published in ChEMBL document CHEMBL1201862, “PubChem BioAssay data set” (2004).
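These data come from cells grown in 96-well plates and exposed to compound for 48 hours at five concentrations. Abbreviation: GI50, concentration required for 50% inhibition of growth.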 Calls of active or inactive are those of the source. Rule as the data show it: active = GI50 up to about 1.1 µM and inactive = higher.

What was measured:
Test in all cases: NCI-60 cell line screen, 48 h
NCI-H460 = tested on: NCI-H460
SK-MEL-28 = tested on: SK-MEL-28
IGROV-1 = tested on: IGROV-1
CAKI-1 = tested on: CAKI-1
Malme-3M = tested on: Malme-3M
DLD-1 = tested on: DLD-1
TK-10 = tested on: TK-10
A498 = tested on: A498
SK-MEL-2 = tested on: SK-MEL-2
COLO 205 = tested on: COLO 205
HOP-62 = tested on: HOP-62
UO-31 = tested on: UO-31
SNB-78 = tested on: SNB-78
Hs-578T = tested on: Hs-578T
KM-20L2 = tested on: KM-20L2
LOX IMVI = tested on: LOX IMVI
HT-29 = tested on: HT-29
SK-OV-3 = tested on: SK-OV-3
ACHN = tested on: ACHN
BT-549 = tested on: BT-549
HL-60 = tested on: HL-60
RPMI-8226 = tested on: RPMI-8226
DMS-273 = tested on: DMS-273
NCI/ADR-RES = tested on: NCI/ADR-RES
LXFL 529 = tested on: LXFL 529
MOLT-4 = tested on: MOLT-4
A549 = tested on: A549
CCRF-CEM = tested on: CCRF-CEM
NCI-H522 = tested on: NCI-H522
DU-145 = tested on: DU-145
NCI-H226 = tested on: NCI-H226
NCI-H23 = tested on: NCI-H23
SW-620 = tested on: SW-620
UACC-62 = tested on: UACC-62
OVCAR-5 = tested on: OVCAR-5
UACC-257 = tested on: UACC-257
DMS-114 = tested on: DMS-114
MDA-N = tested on: MDA-N
HOP-92 = tested on: HOP-92
HCT-15 = tested on: HCT-15
KM12 = tested on: KM12
786-0 = tested on: 786-0
HCT-116 = tested on: HCT-116
SF-295 = tested on: SF-295
SK-MEL-5 = tested on: SK-MEL-5
HCC 2998 = tested on: HCC 2998
SF-539 = tested on: SF-539
RXF 393 = tested on: RXF 393
EKVX = tested on: EKVX
SN12C = tested on: SN12C
SR = tested on: SR
OVCAR-8 = tested on: OVCAR-8
M19-MEL = tested on: M19-MEL
PC-3 = tested on: PC-3
SNB-75 = tested on: SNB-75
MDA-MB-231 = tested on: MDA-MB-231
SF-268 = tested on: SF-268
M14 = tested on: M14
RXF 631 = tested on: RXF 631
K562 = tested on: K562
U-251 = tested on: U-251
OVCAR-3 = tested on: OVCAR-3
OVCAR-4 = tested on: OVCAR-4
MCF7 = tested on: MCF7
T47D = tested on: T47D
MDA-MB-435 = tested on: MDA-MB-435
SNB-19 = tested on: SNB-19

With COC1=CC(=O)c2c(ccc3ncnc(N)c23)C1=O the GI50 (NCI-H460) was 4290 nM (inactive), the GI50 (SK-MEL-28) was 2360 nM (inactive) and the GI50 (IGROV-1) was 1730 nM (inactive). The GI50 (CAKI-1) was 1360 nM (inactive), the GI50 (Malme-3M) was 2630 nM (inactive) and the GI50 (DLD-1) was 2080 nM (inactive). For the same molecule, the GI50 (TK-10) was 3130 nM (inactive), the GI50 (A498) was 2220 nM (inactive) and the GI50 (SK-MEL-2) was 3030 nM (inactive). The GI50 (COLO 205) was 3580 nM (inactive), the GI50 (HOP-62) was 3560 nM (inactive) and the GI50 (UO-31) was 2310 nM (inactive). The GI50 (SNB-78) was 2360 nM (inactive), the GI50 (Hs-578T) was 3300 nM (inactive) and the GI50 (KM-20L2) was 18800 nM (inactive). For the same molecule, the GI50 (LOX IMVI) was 1030 nM (active), the GI50 (HT-29) was 2100 nM (inactive) and the GI50 (SK-OV-3) was 6280 nM (inactive). The GI50 (ACHN) was 1570 nM (inactive), the GI50 (BT-549) was 1790 nM (inactive) and the GI50 (HL-60) was 570 nM (active). The GI50 (RPMI-8226) was 1450 nM (inactive), the GI50 (DMS-273) was 3320 nM (inactive) and the GI50 (NCI/ADR-RES) was 2310 nM (inactive). For the same molecule, the GI50 (LXFL 529) was 1750 nM (inactive), the GI50 (MOLT-4) was 573 nM (active) and the GI50 (A549) was 4050 nM (inactive). For the same molecule, the GI50 (CCRF-CEM) was 665 nM (active), the GI50 (NCI-H522) was 2420 nM (inactive) and the GI50 (DU-145) was 1820 nM (inactive). The GI50 (NCI-H226) was 2200 nM (inactive), the GI50 (NCI-H23) was 1540 nM (inactive) and the GI50 (SW-620) was 1930 nM (inactive). The GI50 (UACC-62) was 1810 nM (inactive), the GI50 (OVCAR-5) was 2000 nM (inactive) and the GI50 (UACC-257) was 1660 nM (inactive). For the same molecule, the GI50 (DMS-114) was 1770 nM (inactive), the GI50 (MDA-N) was 288 nM (active) and the GI50 (HOP-92) was 1630 nM (inactive). For the same molecule, the GI50 (HCT-15) was 1990 nM, the GI50 (KM12) was 4410 nM (inactive) and the GI50 (786-0) was 1780 nM (inactive). The GI50 (HCT-116) was 1770 nM (inactive), the GI50 (SF-295) was 3620 nM (inactive) and the GI50 (SK-MEL-5) was 1640 nM (inactive). For the same molecule, the GI50 (HCC 2998) was 6030 nM (inactive), the GI50 (SF-539) was 1610 nM (inactive) and the GI50 (RXF 393) was 1790 nM (inactive). For the same molecule, the GI50 (EKVX) was 2040 nM (inactive), the GI50 (SN12C) was 1870 nM (inactive) and the GI50 (SR) was 164 nM (active). For the same molecule, the GI50 (OVCAR-8) was 2110 nM (inactive), the GI50 (M19-MEL) was 1690 nM (inactive) and the GI50 (PC-3) was 2320 nM (inactive). The GI50 (SNB-75) was 3570 nM (inactive), the GI50 (MDA-MB-231) was 1190 nM (inactive) and the GI50 (SF-268) was 2470 nM (inactive). For the same molecule, the GI50 (M14) was 1880 nM (inactive), the GI50 (RXF 631) was 4820 nM (inactive) and the GI50 (K562) was 659 nM (active). For the same molecule, the GI50 (U-251) was 1740 nM (inactive), the GI50 (OVCAR-3) was 1480 nM (inactive) and the GI50 (OVCAR-4) was 561 nM (active). The GI50 (MCF7) was 1540 nM (inactive), the GI50 (T47D) was 1110 nM (active) and the GI50 (MDA-MB-435) was 233 nM (active). For the same molecule, the GI50 (SNB-19) was 2380 nM (inactive).
